Test results published in patent US20070191447A1, “Novel heterocyclic compound” (priority 2004, published 2007).

Target: T1, benzodiazepine ω3 receptor (Rattus norvegicus, UniProt P16257)
T1 construct: The kidney membrane fraction (ω3) was prepared as follows; from tissue; host or cells: rat (SD, male) kidney membrane fraction
Assay: Benzodiazepine ω3 receptor binding inhibition test ([3H]-PK-11195, rat kidney membrane fraction)
Conditions: 1 h, compound final concentration 100 nM, [3H]-PK-11195 1 nM, 4° C., one hour, read-out: [3H]-PK-11195 Binding inhibitory rate (%)
Procedure: Experiment 1: Benzodiazepine ω3 receptor and benzodiazepine ω1, ω2 receptors binding inhibition test
The benzodiazepine ω3 receptor binding assay was carried out according to the method disclosed in the literature (Mol. Phamacol., 34, 800-805, 1988), and the benzodiazepine ω1, ω2 receptor binding assays were carried out according to the method disclosed in the literature (Neurophamacol., 34, 1169-1175, 1995), respectively.
SD male rats (Japan Charles River) were decapitated, and the kidney and the cerebral cortex were collected. The kidney membrane fraction (ω3) was prepared as follows. The kidney was homogenized with ice-cold 50 mM Tris-HCl buffer (pH 7.6) of about 5-times volume of the wet tissue weight, and the homogenate was centrifuged at 4° C. for 10 minutes at 20,000 g. The pellets thus obtained were suspended again, and centrifuged at 4° C. for 10 minutes at 20,000 g. These resuspension and centrifugation procedures were repeated once more, and the obtained pellets were diluted in a 50 mM Tris-HCl buffer (pH 7.6) into a concentration of 0.1 mg of protein per one assay of the receptor binding test. The cerebral cortex membrane fraction (ω1 and ω2) was prepared as follows. The cerebral cortex was homogenized with ice-cold potassium phosphate buffer (200 mM KCl, 20 mM KOH, 20 mM KH2PO4, pH 7.4) of 15-times volume of the wet tissue weight, and the homogenate was centrifuged at 4° C. for 15 minutes at 32,500 g. The obtained pellets were suspended again and centrifuged at 4° C. for 15 minutes at 32,500 g. These resuspension and centrifugation procedures were repeated once more, and the obtained pellets were diluted in the potassium phosphate buffer into a concentration of 0.1 mg of protein per one assay of the receptor binding test. Both of these membrane fractions were frozen and stored at −80° C.
As the [^3H]-labeled ligand, [^3H]-PK-11195 (for ω3; PerkinElmer) or [^3H]-Ro-15-1788 [Flumazenil] (for ω1 and ω2; PerkinElmer) was used. […] In order to obtain total binding in the binding inhibition assay, a 0.5% DMSO, the [^3H] labeled ligand (final concentration: 1 nM), and the membrane fraction were mixed (total volume: 1 mL), and the mixture was incubated at 4° C. (for ω3) or at 25° C. (for ω1 and ω2) for one hour. In order to obtain non-specific binding, the non-labeled ligand (final concentration: 10 μM) was added instead of 0.5% DMSO, and in order to study the binding affinity of the present compounds, a solution of the present compound (final concentration: 100 nM for ω3, or 10 μM for ω1 and ω2) in DMSO was added. After the one-hour incubation, the labeled ligand bound to the receptor was collected by filtration with suction through a 0.3% polyethyleneimine-treated GF/B filter using a cell harvester, and washed with ice-cold 50 mM Tris-HCl buffer (for ω3) or ice-cold potassium phosphate buffer (for ω1 and ω2) once. The radioactivity on the GF/B filter was measured with liquid scintillation counter (manufactured by Packard, Tri Carb 2700TR). The results were expressed by the inhibition rate (%) against the binding to the labeled ligand.

| inhibition at 0.1 µM [%] | SMILES |
| --- | --- |
| 98 | CN(C(=O)Cn1c(=O)sc2ccc(Br)cc21)c1ccccc1 [Example 55] |
| 99 | CN(C(=O)Cn1c(=O)sc2c(Br)cccc21)c1ccccc1 [Example 56] |
| 100 | CCCN(CCC)C(=O)Cn1c(=O)n(C)c2ccc(-c3ccccc3)cc21 [Example 60] |
| 100 | CN(C(=O)Cn1c(=O)n(C)c2cc(-c3ccccc3)ccc21)c1ccccc1 [Example 61] |
| 93 | CN(C(=O)Cn1c(=O)n2c3c(cccc31)CCC2)c1ccccc1 [Example 113, N-Methyl-2-(2-oxo-5,6-dihydro-4H-imidazo[4,5,1-ij]quinolin-1(2H)-yl)-N-phenylacetamide] |
| 95 | CN(C(=O)Cn1c(=O)n2c3c(cc(Oc4ccccc4)cc31)CCC2)c1ccccc1 [Example 136, N-Methyl-2-(2-oxo-8-phenoxy-5,6-dihydro-4H-imidazo[4,5,1-ij]quinolin-1(2H)-yl)-N-phenylacetamide] |
| 83 | CC(C(=O)N(C)c1ccccc1)n1c(=O)n2c3c(cc(Br)cc31)CCC2 (stereo not drawn) [Example 137, 2-(8-Bromo-2-oxo-5,6-dihydro-4H-imidazo[4,5,1-ij]quinolin-1(2H)-yl)-N-methyl-N-phenylpropanamide] |
| 83 | CN(C(=O)C1CCc2cccc3c2n1c(=O)n3C)c1ccccc1 (stereo not drawn) [Example 142, N,1-Dimethyl-2-oxo-N-phenyl-1,2,5,6-tetrahydro-4H-imidazo[4,5,1-ij]quinoline-4-carboxamide] |
| 89 | CN(C(=O)Cn1c(=O)oc2ccc(C(=O)c3ccccc3)cc21)c1ccccc1 [Example 373, 2-(5-Benzoyl-2-oxo-1,3-benzoxazol-3(2H) -yl)-N-methyl-N-phenyl-acetamide] |
| 97 | CC(=O)c1cc(Br)cc2c1oc(=O)n2CC(=O)N(C)c1ccccc1 [Example 389, 2-(7-Acetyl-5-bromo-2-oxo-1,3-benzoxazol-3(2H)-yl)-N-methyl-N-phenyl-acetamide] |
| 95 | CN(C(=O)Cn1c(=O)sc2ccc(-c3ccncc3)cc21)c1ccccc1 [Example 395, N-Methyl-2-(2-oxo-5-pyridin-4-yl-1,3-benzothiazol-3(2H)-yl)-N-phenyl-acetamide] |
| 88 | CC(C)n1c(=O)n(CC(=O)N(C)c2ccccc2)c2cc(-c3ccccc3)ccc21 [Example 401, 2-(3-Isopropyl-2-oxo-6-phenyl-2,3-dihydro-1H-benzimidazol-1-yl)-N-methyl-N-phenylacetamide] |
